Measurements reported in PMC9238401, “Peptide Conjugates Derived from flg15, Pep13, and PIP1 That Are Active against Plant-Pathogenic Bacteria and Trigger Plant Defense Responses” (Applied and Environmental Microbiology, 2022).
Non-standard residues stand in square brackets, D forms with d. Residues, ends and D or L forms follow the SMILES beside them. *: point of attachment. Butyryl = CCCC(=O)*

Assay: HPLC retention time as indicator of relative hydrophobicity
Format: physicochemical
Settings: chromatographic, Kromasil 100 C18 (4.6 mm × 40 mm, 3 μm), linear gradient 2 to 100% B over 12 min, 1 mL/min; A 0.1% aqueous TFA, B 0.1% TFA in CH3CN; used as indicator of relative hydrophobicity
How it was run: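 Reversed-phase HPLC on Kromasil 100 C18 (4.6 × 40 mm, 3 μm), 0.1% TFA in water/acetonitrile, linear 2–100% B at 1 mL/min over 7 min (method A, UV 220 nm) or 12 min (method B). Retention time serves as relative hydrophobicity.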

Compound | tR (min), HPLC retention time (method B) [min]
CCCC(=O)NCCCC[C@H](NC(=O)[C@H](CCCCN)NC(=O)[C@H](CC(C)C)NC(=O)[C@@H](NC(=O)[C@H](CCCCN)NC(=O)[C@H](CCCCN)NC(=O)[C@@H](Cc1ccccc1)NC(=O)[C@H](CC(C)C)NC(=O)[C@H](CCCCN)NC(=O)[C@H](CCCCN)NC(=O)[C@H](Cc1c[nH]cn1)NC(=O)[C@@H](NC(=O)[C@H](Cc1c[nH]cn1)NC(=O)[C@@H](NC(=O)CNC(=O)[C@H](Cc1ccc(O)cc1)NC(C)=O)[C@@H](C)CC)[C@@H](C)O)[C@@H](C)CC)C(=O)N[C@@H](CC(C)C)C(N)=O [PIP1-BP475] (Ac-YGIHTHKKL[dF]KKILKK(Butyryl)L-NH2) | 5.55
CCCC(=O)NCCCC[C@H](NC(=O)[C@H](CCCCN)NC(=O)[C@H](CC(C)C)NC(=O)[C@@H](NC(=O)[C@H](CCCCN)NC(=O)[C@H](CCCCN)NC(=O)[C@@H](Cc1ccccc1)NC(=O)[C@H](CC(C)C)NC(=O)[C@H](CCCCN)NC(=O)[C@H](CCCCN)NC(=O)[C@H](C)NC(=O)[C@@H](NC(=O)[C@H](CCC(N)=O)NC(=O)[C@H](CC(C)C)NC(=O)CNC(=O)[C@H](C)NC(=O)[C@H](C)NC(=O)[C@H](CC(=O)O)NC(=O)[C@H](CC(=O)O)NC(=O)[C@H](CCCCN)NC(=O)[C@H](C)NC(=O)[C@H](CO)NC(=O)[C@H](CC(N)=O)NC(=O)[C@@H](NC(=O)[C@H](CCCNC(=N)N)NC(C)=O)[C@@H](C)CC)[C@@H](C)CC)[C@@H](C)CC)C(=O)N[C@@H](CC(C)C)C(N)=O [flg15-BP475] (Ac-RINSAKDDAAGLQIAKKL[dF]KKILKK(Butyryl)L-NH2) | 6.79
